Experiment in all cases: relative viability (nuclei count vs DMSO), 5 days (fraction); higher = more cells survive
Compound in the experiment “GW-2580 + Crizotinib”: COC1=CC=C(C=C1)COC2=C(C=C(C=C2)CC3=CN=C(N=C3N)N)OC [GW-2580] + C[C@@H](Oc1cc(-c2cnn(C3CCNCC3)c2)cnc1N)c1c(Cl)ccc(F)c1Cl [Crizotinib] (partner 1 µM)
In short, it runs like this: (§1)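 Five library-drug doses in √10 steps were combined with a fixed anchor-drug dose, or a single drug was given alone, by pin tool to lung cancer cell lines in 1536-well plates the day after seeding. Nuclei were stained and counted after 5 days. Relative viability is the nuclei count in treated wells over that in vehicle wells, taken as the median of duplicate plates.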

Compound in the experiment “GW-2580 + Tozasertib”: COC1=CC=C(C=C1)COC2=C(C=C(C=C2)CC3=CN=C(N=C3N)N)OC [GW-2580] + Cc1cc(Nc2cc(N3CCN(C)CC3)nc(Sc3ccc(NC(=O)C4CC4)cc3)n2)n[nH]1 [Tozasertib] (partner 0.1 µM)
The method, boiled down: as §1

Compound in the experiment “Fedratinib + Trametinib”: Cc1cnc(Nc2ccc(OCCN3CCCC3)cc2)nc1Nc1cccc(S(=O)(=O)NC(C)(C)C)c1 [Fedratinib] + CC(=O)Nc1cccc(-n2c(=O)n(C3CC3)c(=O)c3c(Nc4ccc(I)cc4F)n(C)c(=O)c(C)c32)c1 [Trametinib] (partner 0.02 µM)
The method, boiled down: as §1

Compound in the experiment “Fedratinib + Bortezomib”: Cc1cnc(Nc2ccc(OCCN3CCCC3)cc2)nc1Nc1cccc(S(=O)(=O)NC(C)(C)C)c1 [Fedratinib] + CC(C)C[C@H](NC(=O)[C@H](Cc1ccccc1)NC(=O)c1cnccn1)B(O)O [Bortezomib] (partner 0.002 µM)
The method, boiled down: as §1

Compound in the experiment “Fedratinib + Foretinib”: Cc1cnc(Nc2ccc(OCCN3CCCC3)cc2)nc1Nc1cccc(S(=O)(=O)NC(C)(C)C)c1 [Fedratinib] + COc1cc2c(Oc3ccc(NC(=O)C4(C(=O)Nc5ccc(F)cc5)CC4)cc3F)ccnc2cc1OCCCN1CCOCC1 [Foretinib] (partner 0.25 µM)
In short, it runs like this:
as §1

Compound in the experiment “Fedratinib + Linsitinib”: Cc1cnc(Nc2ccc(OCCN3CCCC3)cc2)nc1Nc1cccc(S(=O)(=O)NC(C)(C)C)c1 [Fedratinib] + C[C@]1(O)C[C@@H](c2nc(-c3ccc4ccc(-c5ccccc5)nc4c3)c3c(N)nccn32)C1 [Linsitinib] (partner 1 µM)
The method, boiled down:
as §1

From the supplement of paper PMC10307832 come the findings set out here.

On to NCI-H2085, for which the relative viability came out at 0.903 in the experiment with GW-2580 + Crizotinib (first compound 0.08 µM); 0.918 in the experiment with GW-2580 + Crizotinib (first compound 0.8 µM); 0.779 with GW-2580 + Crizotinib (first compound 2.53 µM); 0.758 in the experiment with GW-2580 + Crizotinib (first compound 8 µM); 0.698 with GW-2580 + Tozasertib (first compound 0.08 µM); 0.8 with GW-2580 + Tozasertib (first compound 0.8 µM). The relative viability with GW-2580 + Tozasertib (first compound 2.53 µM) is 0.667; with GW-2580 + Tozasertib (first compound 8 µM), 0.748; with Fedratinib + Trametinib (first compound 0.1 µM) it was 0.598; with Fedratinib + Trametinib (first compound 0.3162 µM), 0.512; with Fedratinib + Trametinib (first compound 1 µM) it was 0.458; with Fedratinib + Bortezomib (first compound 0.1 µM), 1.04. In addition, the relative viability with Fedratinib + Bortezomib (first compound 0.3162 µM) stood at 1.09; in the experiment with Fedratinib + Bortezomib (first compound 1 µM), 0.416; with Fedratinib + Foretinib (first compound 0.1 µM) it was 0.883; with Fedratinib + Foretinib (first compound 0.3162 µM), 0.861; in the experiment with Fedratinib + Foretinib (first compound 1 µM), 0.909; with Fedratinib + Linsitinib (first compound 0.1 µM), 0.845. Besides, the relative viability in the experiment with Fedratinib + Linsitinib (first compound 0.3162 µM) is 0.872; with Fedratinib + Linsitinib (first compound 1 µM) it was 0.858.
Regarding NCI-H2087, the relative viability in the experiment with GW-2580 + Crizotinib (first compound 0.08 µM) is 0.8; with GW-2580 + Crizotinib (first compound 0.8 µM), 0.993; with GW-2580 + Crizotinib (first compound 2.53 µM) it was 1; with GW-2580 + Crizotinib (first compound 8 µM) it was 0.772; in the experiment with GW-2580 + Tozasertib (first compound 0.08 µM), 0.242; with GW-2580 + Tozasertib (first compound 0.8 µM), 0.263. The relative viability with GW-2580 + Tozasertib (first compound 2.53 µM) was determined as 0.249; with GW-2580 + Tozasertib (first compound 8 µM), 0.212; in the experiment with Fedratinib + Trametinib (first compound 0.1 µM), 0.203; with Fedratinib + Trametinib (first compound 0.3162 µM) it was 0.177; with Fedratinib + Trametinib (first compound 1 µM) it was 0.213; with Fedratinib + Bortezomib (first compound 0.1 µM), 0.806. Further, the relative viability with Fedratinib + Bortezomib (first compound 0.3162 µM) amounted to 0.754; in the experiment with Fedratinib + Bortezomib (first compound 1 µM), 0.259; with Fedratinib + Foretinib (first compound 0.1 µM) it was 0.65; with Fedratinib + Foretinib (first compound 0.3162 µM), 1.01; with Fedratinib + Foretinib (first compound 1 µM), 1.01; with Fedratinib + Linsitinib (first compound 0.1 µM) it was 1.02. Further, the relative viability is 0.923 with Fedratinib + Linsitinib (first compound 0.3162 µM) and 0.859 with Fedratinib + Linsitinib (first compound 1 µM).
Consider NCI-H2126, for which the relative viability with GW-2580 + Crizotinib (first compound 0.08 µM) worked out at 1.06; in the experiment with GW-2580 + Crizotinib (first compound 0.8 µM), 1.06; in the experiment with GW-2580 + Crizotinib (first compound 2.53 µM), 1.01; with GW-2580 + Crizotinib (first compound 8 µM), 1.04; with GW-2580 + Tozasertib (first compound 0.08 µM) it was 0.889; with GW-2580 + Tozasertib (first compound 0.8 µM) it was 0.933. In addition, the relative viability with GW-2580 + Tozasertib (first compound 2.53 µM) was determined as 0.822; with GW-2580 + Tozasertib (first compound 8 µM) it was 0.794; in the experiment with Fedratinib + Trametinib (first compound 0.1 µM), 0.493; with Fedratinib + Trametinib (first compound 0.3162 µM) it was 0.582; with Fedratinib + Trametinib (first compound 1 µM), 0.541; with Fedratinib + Bortezomib (first compound 0.1 µM) it was 1.08. Besides, the relative viability with Fedratinib + Bortezomib (first compound 0.3162 µM) came to 1.12; with Fedratinib + Bortezomib (first compound 1 µM) it was 1.07; in the experiment with Fedratinib + Foretinib (first compound 0.1 µM), 1.07; with Fedratinib + Foretinib (first compound 0.3162 µM) it was 1.06; with Fedratinib + Foretinib (first compound 1 µM), 1.08; with Fedratinib + Linsitinib (first compound 0.1 µM), 0.689. Also, the relative viability was 0.732 with Fedratinib + Linsitinib (first compound 0.3162 µM) and 0.682 in the experiment with Fedratinib + Linsitinib (first compound 1 µM).
As for NCI-H2228, the relative viability with GW-2580 + Crizotinib (first compound 0.08 µM) came out at 0.404; with GW-2580 + Crizotinib (first compound 0.8 µM), 0.528; with GW-2580 + Crizotinib (first compound 2.53 µM), 0.408; with GW-2580 + Crizotinib (first compound 8 µM), 0.5; with GW-2580 + Tozasertib (first compound 0.08 µM) it was 0.28; with GW-2580 + Tozasertib (first compound 0.8 µM), 0.351. Moreover, the relative viability with GW-2580 + Tozasertib (first compound 2.53 µM) was determined as 0.226; with GW-2580 + Tozasertib (first compound 8 µM) it was 0.235; with Fedratinib + Trametinib (first compound 0.1 µM), 0.629; with Fedratinib + Trametinib (first compound 0.3162 µM) it was 0.306; in the experiment with Fedratinib + Trametinib (first compound 1 µM) it was 0.404; with Fedratinib + Bortezomib (first compound 0.1 µM), 1.35. Moreover, the relative viability with Fedratinib + Bortezomib (first compound 0.3162 µM) amounted to 0.866; in the experiment with Fedratinib + Bortezomib (first compound 1 µM), 0.408; with Fedratinib + Foretinib (first compound 0.1 µM), 0.847; with Fedratinib + Foretinib (first compound 0.3162 µM), 0.825; with Fedratinib + Foretinib (first compound 1 µM), 0.743; with Fedratinib + Linsitinib (first compound 0.1 µM), 0.609. Further, the relative viability in the experiment with Fedratinib + Linsitinib (first compound 0.3162 µM) was 0.837; with Fedratinib + Linsitinib (first compound 1 µM), 0.543.
Consider NCI-H2347, for which the relative viability with GW-2580 + Crizotinib (first compound 0.08 µM) was 0.733; with GW-2580 + Crizotinib (first compound 0.8 µM), 0.702; with GW-2580 + Crizotinib (first compound 2.53 µM) it was 0.603; with GW-2580 + Crizotinib (first compound 8 µM), 0.736; with GW-2580 + Tozasertib (first compound 0.08 µM), 0.538; with GW-2580 + Tozasertib (first compound 0.8 µM), 0.745. The relative viability with GW-2580 + Tozasertib (first compound 2.53 µM) came to 0.508; in the experiment with GW-2580 + Tozasertib (first compound 8 µM), 0.401; with Fedratinib + Trametinib (first compound 0.1 µM), 0.252; with Fedratinib + Trametinib (first compound 0.3162 µM), 0.27; with Fedratinib + Trametinib (first compound 1 µM) it was 0.27; in the experiment with Fedratinib + Bortezomib (first compound 0.1 µM), 0.82. Also, the relative viability with Fedratinib + Bortezomib (first compound 0.3162 µM) came to 0.874; with Fedratinib + Bortezomib (first compound 1 µM), 0.722; with Fedratinib + Foretinib (first compound 0.1 µM), 0.869; with Fedratinib + Foretinib (first compound 0.3162 µM), 0.853; with Fedratinib + Foretinib (first compound 1 µM) it was 0.829; in the experiment with Fedratinib + Linsitinib (first compound 0.1 µM), 0.871. Moreover, the relative viability is 0.922 in the experiment with Fedratinib + Linsitinib (first compound 0.3162 µM) and 0.878 with Fedratinib + Linsitinib (first compound 1 µM).
NCI-H2405: the relative viability in the experiment with GW-2580 + Crizotinib (first compound 0.08 µM) was 0.827; with GW-2580 + Crizotinib (first compound 0.8 µM), 0.885; with GW-2580 + Crizotinib (first compound 2.53 µM) it was 0.753; with GW-2580 + Crizotinib (first compound 8 µM), 0.78; with GW-2580 + Tozasertib (first compound 0.08 µM), 0.8; in the experiment with GW-2580 + Tozasertib (first compound 0.8 µM), 0.726. Moreover, the relative viability in the experiment with GW-2580 + Tozasertib (first compound 2.53 µM) turned out to be 0.656; with GW-2580 + Tozasertib (first compound 8 µM), 0.524; with Fedratinib + Trametinib (first compound 0.1 µM) it was 0.582; with Fedratinib + Trametinib (first compound 0.3162 µM), 0.584; in the experiment with Fedratinib + Trametinib (first compound 1 µM), 0.57; in the experiment with Fedratinib + Bortezomib (first compound 0.1 µM) it was 1.05. In addition, the relative viability in the experiment with Fedratinib + Bortezomib (first compound 0.3162 µM) turned out to be 0.77; with Fedratinib + Bortezomib (first compound 1 µM), 0.957; in the experiment with Fedratinib + Foretinib (first compound 0.1 µM), 1.03; in the experiment with Fedratinib + Foretinib (first compound 0.3162 µM), 1.02; with Fedratinib + Foretinib (first compound 1 µM), 1.01; with Fedratinib + Linsitinib (first compound 0.1 µM), 0.704. In addition, the figures for the relative viability in the experiment with Fedratinib + Linsitinib (first compound 0.3162 µM) and in the experiment with Fedratinib + Linsitinib (first compound 1 µM) were 0.962 and 0.702, respectively.
